Patent US4476122A, “Alkyloximes of 7-amino-thiazolyl-acetamido-cephalosporanic acids” (Roussel Uclaf, priority 1976, dated 1984)
Converted amounts (≈) assume the structure as drawn. Read-outs that look alike come from different tables or passages of the source.

Experiments:
[1] = system: Streptococcus faecalis 99 F 74; assay: MIC, liquid medium dilution; type: cell-based; settings: Enterococcus faecalis
Method: (§1) The method used was a dilution of a liquid medium where a series of tubes received the same quantity of a sterile nutritive media and increasing doses of the test compounds were placed therein. Then each tube was seeded with a bacterial strain and was incubated for 24 or 48 hours at 37° C. in an oven. The increasing inhibition was determined by transillumination to determine the minimum inhibiting concentration (MIC in μg/ml) and the results are reported in the following Tables.

[2] = system: Streptococcus pyogenes A 561; assay: MIC, liquid medium dilution; type: cell-based
Method: as §1

[3] = system: Staphylococcus aureus ATCC 6 538 Pen-Sensitive; assay: MIC, liquid medium dilution; type: cell-based
Method: as §1

[4] = system: Serratia Resistant Gentamicine 2 532; assay: MIC, liquid medium dilution; type: cell-based
Method: as §1

[5] = system: Klebsiella pneumoniae 2 536 Resistant Gentamicine; assay: MIC, liquid medium dilution; type: cell-based
Method: as §1

[6] = system: Escherichia Coli Resistant Gentamicine, Tobramycine R 55 123 D; assay: MIC, liquid medium dilution; type: cell-based
Method: as §1

[7] = system: Escherichia Coli Exp. TO26 B6; assay: MIC, liquid medium dilution; type: cell-based
Method: as §1

[8] = system: Bacillus subtilis ATCC 6 633; assay: MIC, liquid medium dilution; type: cell-based
Method: as §1

[9] = system: Escherichia Coli Resistant Tetracycline ATCC 11 303; assay: MIC, liquid medium dilution; type: cell-based
Method: as §1

[10] = system: Proteus mirabilis (indol-) A 235; assay: MIC, liquid medium dilution; type: cell-based
Method: as §1

Providencia Du 48 = assay: MIC, liquid medium dilution; type: cell-based
Method: as §1

Enterobacter cloacae 681 = assay: MIC, liquid medium dilution; type: cell-based; settings: read-out: MIC
Method: as §1

[11] = system: Escherichia Coli Sensitive Tetracycline ATCC 9 637; assay: MIC, liquid medium dilution; type: cell-based
Method: as §1

[12] = system: Klebsiella pneumoniae Exp. 52 145; assay: MIC, liquid medium dilution; type: cell-based
Method: as §1

[13] = system: Salmonella typhimurium 420; assay: MIC, liquid medium dilution; type: cell-based; settings: Salmonella enterica
Method: as §1

[14] = system: Staphylococcus aureus UC 1 128 Pen-Resistant; assay: MIC, liquid medium dilution; type: cell-based
Method: as §1

[15] = system: Streptococcus faecalis 5 432; assay: MIC, liquid medium dilution; type: cell-based
Method: as §1

[16] = system: Staphylococcus aureus exp. n° 54 146; assay: MIC, liquid medium dilution; type: cell-based
Method: as §1

[17] = system: Escherichia coli (T) O26 B6; assay: Experimental infection with Escherichia coli (T) O26 B6 in mice; type: in vivo
Method: The products of Example 6 and 10 were studied for their activity against an experimental infection of Escherichia coli in groups of 10 male mice weighing about 22 g. The mice received an intraperitoneal injection of 0.5 ml of a 24 hour old culture in a nutritive media of Escherichia coli (T) O26 B6 of the Pasteur Institute diluted 1/5.5 with distilled water. The test product was administered subcutaneously or orally 1 hour and 5 and 24 hours after the infection and the number of dead was determined during 8 days.

[18] = system: Proteus vulgaris (indol+) A 232; assay: MIC, liquid medium dilution; type: cell-based
Method: as §1

[19] = Enterococcus faecalis, 5432, 24 h

CO/N=C(\C(=O)NC1C(=O)N2C(C(=O)O)=C(CSc3nnc(C)s3)CS[C@H]12)c1csc(N)n1 (stereo partly shown) [Example 2, 7-[{2-(2-amino-4-thiazolyl)-2-methoxyiminoacetyl}amino]-3-[(2-methyl-1,3,4-thiadiazol-5-yl)-thiomethyl]-ceph-3-eme-4-carboxylic acid]
MIC ([1]; 99F74, 24 h, read-out: MIC): 2 µg/mL (≈ 3.79 µM) | MIC ([1]; 99F74, 48 h, read-out: MIC): 5 µg/mL (≈ 9.48 µM) | MIC ([2]; A561, 24 h, read-out: MIC): ≤ 0.02 µg/mL | MIC ([2]; A561, 48 h, read-out: MIC): ≤ 0.02 µg/mL | MIC ([3]; ATCC6, 24 h): 1 µg/mL (≈ 1.9 µM) | MIC ([3]; ATCC6, 48 h): 1 µg/mL (≈ 1.9 µM) | MIC ([4]; 24 h): 1 µg/mL (≈ 1.9 µM) | MIC ([4]; 48 h): 1 µg/mL (≈ 1.9 µM) | MIC ([5]; 24 h, read-out: MIC): 0.6 µg/mL (≈ 1.14 µM) | MIC ([5]; 48 h): 1 µg/mL (≈ 1.9 µM) | MIC ([6]; 24 h): 0.4 µg/mL (≈ 0.758 µM) | MIC ([6]; 48 h): 0.4 µg/mL (≈ 0.758 µM) | MIC ([7]; 24 h): 0.4 µg/mL (≈ 0.758 µM) | MIC ([7]; 48 h): 0.4 µg/mL (≈ 0.758 µM) | MIC ([8]; ATCC6, 24 h, read-out: MIC): 0.6 µg/mL (≈ 1.14 µM) | MIC ([8]; ATCC6, 48 h): 1 µg/mL (≈ 1.9 µM) | MIC ([9]; ATCC11, 24 h, read-out: MIC): 0.1 µg/mL (≈ 0.19 µM) | MIC ([9]; ATCC11, 48 h): 0.2 µg/mL (≈ 0.379 µM) | MIC ([10]; 24 h): 0.2 µg/mL (≈ 0.379 µM) | MIC ([10]; 48 h): 0.2 µg/mL (≈ 0.379 µM) | MIC (Providencia Du 48; DU48, 24 h, read-out: MIC): 2 µg/mL (≈ 3.79 µM) | MIC (Providencia Du 48; DU48, 48 h, read-out: MIC): 5 µg/mL (≈ 9.48 µM) | MIC (Enterobacter cloacae 681; Enterobacter cloacae, 681, 24 h): 40 µg/mL (≈ 75.8 µM) | MIC (Enterobacter cloacae 681; Enterobacter cloacae, 681, 48 h): 40 µg/mL (≈ 75.8 µM) | MIC ([11]; ATCC9, 24 h, read-out: MIC): 0.6 µg/mL (≈ 1.14 µM) | MIC ([11]; ATCC9, 48 h): 0.6 µg/mL (≈ 1.14 µM) | MIC ([12]; EXP.52145, 24 h): 0.05 µg/mL (≈ 0.0948 µM) | MIC ([12]; EXP.52145, 48 h, read-out: MIC): 0.1 µg/mL (≈ 0.19 µM) | MIC ([13]; 24 h, read-out: MIC): 0.6 µg/mL (≈ 1.14 µM) | MIC ([13]; 48 h): 0.6 µg/mL (≈ 1.14 µM) | MIC ([14]; UC1, 24 h, read-out: MIC): 2 µg/mL (≈ 3.79 µM) | MIC ([14]; UC1, 48 h, read-out: MIC): 2 µg/mL (≈ 3.79 µM) | MIC [15, 19]: 1 µg/mL (≈ 1.9 µM) | MIC ([15]; Enterococcus faecalis, 5432, 48 h, read-out: MIC): 2 µg/mL (≈ 3.79 µM) | MIC ([16]; 24 h, read-out: MIC): 2 µg/mL (≈ 3.79 µM) | MIC ([16]; 48 h, read-out: MIC): 2 µg/mL (≈ 3.79 µM)

CO/N=C(\C(=O)NC1C(=O)N2C(C(=O)O)=C(C)CSC12)c1csc(N)n1 (stereo not shown) [Example 10, 7-[{2-(2-amino-4-thiazolyl)-2-methoxyimino}acetylamino]-3-methyl-ceph-3-eme-4-carboxylic acid]
Mice surviving on the 8th day ([17]; per os, 3 × 0,5 mg): 2/10 | Mortality after 5 J (number of dead of 10) ([17]; per os, 3 × 0,5 mg): 1 | Mortality after 6 J (number of dead of 10) ([17]; per os, 3 × 0,5 mg): 2 | Mortality after 21 H 30 (number of dead of 10) ([17]; per os, 3 × 0,5 mg): 2 | Mortality after 47 H (number of dead of 10) ([17]; per os, 3 × 0,5 mg): 1 | Mortality after 70 H (number of dead of 10) ([17]; per os, 3 × 0,5 mg): 2 | Mice surviving on the 8th day ([17]; per os, 3 × 0,25 mg): 2/10 | Mortality after 21 H 30 (number of dead of 10) ([17]; per os, 3 × 0,25 mg): 6 | Mortality after 24 H 30 (number of dead of 10) ([17]; per os, 3 × 0,25 mg): 1 | Mortality after 24 H (number of dead of 10) ([17]; per os, 3 × 0,25 mg): 1 | Mice surviving on the 8th day ([17]; per os, 3 × mg): 7/10 | Mortality after 21 H 30 (number of dead of 10) ([17]; per os, 3 × mg): 1 | Mortality after 47 H (number of dead of 10) ([17]; per os, 3 × mg): 2 | Mice surviving on the 8th day ([17]; s. c., 3 × 0,1 mg): 6/10 | Mortality after 21 H 30 (number of dead of 10) ([17]; s. c., 3 × 0,1 mg): 3 | Mortality after 47 H (number of dead of 10) ([17]; s. c., 3 × 0,1 mg): 1 | Mice surviving on the 8th day ([17]; s. c., 3 × 0,5 mg): 8/10 | Mortality after 47 H (number of dead of 10) ([17]; s. c., 3 × 0,5 mg): 2 | Mice surviving on the 8th day ([17]; s. c., 3 × 0,25 mg): 7/10 | Mortality after 5 H 30 (number of dead of 10) ([17]; s. c., 3 × 0,25 mg): 1 | Mortality after 28 H (number of dead of 10) ([17]; s. c., 3 × 0,25 mg): 1 | Mortality after 54 H (number of dead of 10) ([17]; s. c., 3 × 0,25 mg): 1 | MIC ([1]; 99F74, 24 h): 20 µg/mL (≈ 50.3 µM) | MIC ([1]; 99F74, 48 h): > 40 µg/mL | MIC ([2]; A561, 24 h): 0.05 µg/mL (≈ 0.126 µM) | MIC ([2]; A561, 48 h, read-out: MIC): 0.05 µg/mL (≈ 0.126 µM) | MIC ([18]; 24 h): 3 µg/mL (≈ 7.55 µM) | MIC ([18]; 48 h): 20 µg/mL (≈ 50.3 µM) | MIC ([3]; ATCC6, 24 h): 20 µg/mL (≈ 50.3 µM) | MIC ([3]; ATCC6, 48 h): 40 µg/mL (≈ 101 µM) | MIC ([4]; 24 h): 5 µg/mL (≈ 12.6 µM) | MIC ([4]; 48 h, read-out: MIC): 10 µg/mL (≈ 25.2 µM) | MIC ([5]; 24 h, read-out: MIC): 0.6 µg/mL (≈ 1.51 µM) | MIC ([5]; 48 h): 2 µg/mL (≈ 5.03 µM) | MIC ([6]; 24 h, read-out: MIC): 0.6 µg/mL (≈ 1.51 µM) | MIC ([6]; 48 h): 0.6 µg/mL (≈ 1.51 µM) | MIC ([7]; 24 h): 0.4 µg/mL (≈ 1.01 µM) | MIC ([7]; 48 h): 0.6 µg/mL (≈ 1.51 µM) | MIC ([8]; ATCC6, 24 h): 20 µg/mL (≈ 50.3 µM) | MIC ([8]; ATCC6, 48 h): > 40 µg/mL | MIC ([9]; ATCC11, 24 h): 0.2 µg/mL (≈ 0.503 µM) | MIC ([9]; ATCC11, 48 h): 0.2 µg/mL (≈ 0.503 µM) | MIC ([10]; 24 h, read-out: MIC): 0.1 µg/mL (≈ 0.252 µM) | MIC ([10]; 48 h): 0.2 µg/mL (≈ 0.503 µM) | MIC (Providencia Du 48; DU48, 24 h): 2 µg/mL (≈ 5.03 µM) | MIC (Providencia Du 48; DU48, 48 h): 5 µg/mL (≈ 12.6 µM) | MIC ([11]; ATCC9, 24 h, read-out: MIC): 0.6 µg/mL (≈ 1.51 µM) | MIC ([11]; ATCC9, 48 h): 0.6 µg/mL (≈ 1.51 µM) | MIC ([12]; EXP.52145, 24 h, read-out: MIC): 0.1 µg/mL (≈ 0.252 µM) | MIC ([12]; EXP.52145, 48 h, read-out: MIC): 0.1 µg/mL (≈ 0.252 µM) | MIC ([13]; 24 h, read-out: MIC): 0.6 µg/mL (≈ 1.51 µM) | MIC ([13]; 48 h): 0.6 µg/mL (≈ 1.51 µM) | MIC ([14]; UC1, 24 h): 40 µg/mL (≈ 101 µM) | MIC ([14]; UC1, 48 h): 40 µg/mL (≈ 101 µM) | MIC [15, 19]: 20 µg/mL (≈ 50.3 µM) | MIC ([15]; Enterococcus faecalis, 5432, 48 h): > 40 µg/mL | MIC ([16]; 24 h): 40 µg/mL (≈ 101 µM) | MIC ([16]; 48 h): 40 µg/mL (≈ 101 µM)
